Laboratory results taken from paper PMC10878854, “Identification, structural characterization, and molecular dynamic simulation of ACE inhibitory peptides in whey hydrolysates from Chinese Rushan cheese by-product” (Food Chemistry: X, 2024).
Read-outs that look alike come from different tables or passages of the source. No end group written: not given here.

How the values were obtained:
[1] = 90 % homology to known functional peptides; ref BIOPEP, EROP-Moscow, MBPDB databases; cited from earlier work
Description: Supplement mmc2.doc, table 1: Table S2. Bioactive peptides identified in Rushan cheese whey hydrolysates (RCWH). | column: Potential bioactive

[2] = molecular target: T1, ACE (Oryctolagus cuniculus, UniProt P12822); experiment: In-vitro ACE inhibitory activity (HHL substrate, hippuric acid absorbance at 228 nm); type: biochemical; conditions: synthetic peptides; 5 mM HHL, 25 mU/mL ACE, 37 °C 30 min, absorbance 228 nm; calculated from regression equations; mean ± SD, n = 3
T1 sequence (P12822 34-1310): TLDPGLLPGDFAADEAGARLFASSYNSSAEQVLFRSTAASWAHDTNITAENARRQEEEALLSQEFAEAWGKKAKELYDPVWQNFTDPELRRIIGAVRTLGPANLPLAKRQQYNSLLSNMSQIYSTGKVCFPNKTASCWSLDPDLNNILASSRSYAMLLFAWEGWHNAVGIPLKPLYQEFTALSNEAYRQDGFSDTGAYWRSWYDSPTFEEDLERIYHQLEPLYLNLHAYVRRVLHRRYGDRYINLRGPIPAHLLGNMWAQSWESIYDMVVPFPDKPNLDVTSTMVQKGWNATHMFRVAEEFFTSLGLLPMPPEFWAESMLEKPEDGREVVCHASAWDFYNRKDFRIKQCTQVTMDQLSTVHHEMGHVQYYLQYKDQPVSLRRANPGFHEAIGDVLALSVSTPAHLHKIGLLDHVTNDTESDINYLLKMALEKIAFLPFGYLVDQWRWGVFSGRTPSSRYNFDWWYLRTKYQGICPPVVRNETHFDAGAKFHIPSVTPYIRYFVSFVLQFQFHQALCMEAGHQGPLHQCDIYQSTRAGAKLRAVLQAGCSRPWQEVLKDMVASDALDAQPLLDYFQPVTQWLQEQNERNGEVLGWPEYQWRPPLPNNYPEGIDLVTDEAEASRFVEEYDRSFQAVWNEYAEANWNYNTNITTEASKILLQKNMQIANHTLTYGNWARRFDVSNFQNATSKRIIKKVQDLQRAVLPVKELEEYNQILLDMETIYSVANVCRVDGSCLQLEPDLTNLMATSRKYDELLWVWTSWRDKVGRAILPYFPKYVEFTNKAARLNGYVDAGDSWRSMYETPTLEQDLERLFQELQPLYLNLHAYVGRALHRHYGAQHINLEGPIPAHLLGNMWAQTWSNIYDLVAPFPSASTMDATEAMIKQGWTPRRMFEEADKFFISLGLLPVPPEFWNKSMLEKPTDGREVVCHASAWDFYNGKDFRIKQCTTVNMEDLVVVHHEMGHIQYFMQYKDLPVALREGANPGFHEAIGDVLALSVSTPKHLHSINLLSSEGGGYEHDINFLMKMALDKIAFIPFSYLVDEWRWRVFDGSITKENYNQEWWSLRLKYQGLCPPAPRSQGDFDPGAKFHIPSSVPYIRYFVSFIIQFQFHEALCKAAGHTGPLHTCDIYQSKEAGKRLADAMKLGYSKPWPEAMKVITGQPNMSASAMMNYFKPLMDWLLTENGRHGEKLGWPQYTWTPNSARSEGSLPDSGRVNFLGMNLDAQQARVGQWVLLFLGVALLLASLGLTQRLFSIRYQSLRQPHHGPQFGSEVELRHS
Description: ACE inhibitory activity of whey hydrolysate fractions with different MW was assessed by a method reported by [Cushman and Cheung (1971)]. In brief, 30 μL of whey hydrolysate fraction was added to 80 μL of 5 mM HHL and incubated at 37 °C for 10 min. Then, 20 μL of 25 mU/ mL ACE was added to the mixture. The reaction was performed at 37 °C for 30 min and then stopped by adding 250 μL of 1 M HCl. Subsequently, 1.7 mL of ethyl acetate was added to the mixture to extract the released hippuric acid. After vigorous stirring for 10 s, the samples were submitted to centrifugation (TLG20M, Changsha Maijiasen Instrument Equipment Co., Ltd., China) at 5,000 rcf at 4 °C for 15 min. Then 1.4 mL of the organic phase was transferred to a fresh test tube. Ethyl acetate was evaporated by placing samples in a boiling water bath. The residue was dissolved in 3 mL of deionized water, and absorbance was measured at 228 nm by enzyme marker (Multiskan FC, Thermo Fisher Scientific). The following formula was used to calculate ACE inhibition rate: ACE-inhibition rate\%:[1-(C-D)/(A-B)]×100% Where A represents the absorbance with ACE but without the sample; B the absorbance without ACE and the sample; C the absorbance in the presence of ACE and the sample; and D the absorbance with the sample but without ACE.

[3] = molecular target: T1, ACE; conditions: cited from earlier work
[4] = not given; remark: listed apart in the source
[5] = not given; remark: listed apart in the source
[6] = peptides derived from eel bone, ref Shao, 2022
[7] = food-derived non-competitive ACEIPs, ref Xie et al., 2022, Paisansak et al., 2021
[8] = peptides derived from large yellow croaker, ref Li, 2021
[9] = ACEIPs with mixed inhibitory patterns, ref Chen et al., 2020, Xie et al., 2022

**Q.** Which Potential bioactive [1] does the source give for AVPYPQR here?
**A.** Its Potential bioactive is “ACE inhibitor, Antimicrobial, Antioxidative”.

**Q.** With DDFFHR [DDFFHR] as the substance, how does the IC50 [2] read?
**A.** The IC50 was over 1200 µM.

**Q.** Which Potential bioactive [1] does the source give for DKIHPF here?
**A.** The Potential bioactive was “ACE inhibitor”.

**Q.** Which Potential bioactive [1] does the source give for DKVGINY here?
**A.** The Potential bioactive was “ACE inhibitor”.

**Q.** With DKVGINYW as the substance, how does the Potential bioactive [1] read?
**A.** The Potential bioactive was “ACE inhibitor”.

**Q.** Which “IC50 (ACE inhibitory activity)” value [3, 6] does the source give for GGPGPSGPR here?
**A.** Its value is 758 µg/mL.

**Q.** With GKWEKPF [GKWEKPF] as the substance, how does the IC50 [2] read?
**A.** The IC50 was over 1120 µM.

**Q.** For GPAGPR, which “IC50 (ACE inhibitory activity)” value [3, 6] is on record?
**A.** The value was 1246 µg/mL.

**Q.** Which “IC50 (ACE inhibitory activity)” value [3, 6] does the source give for GPIGPPGPR here?
**A.** The value was 1441 µg/mL.

**Q.** Which “IC50 (ACE inhibitory activity)” value [3, 6] does the source give for GPMGPR here?
**A.** Its value is 2247 µg/mL.

**Q.** For GPSGAPGPR, which “IC50 (ACE inhibitory activity)” value [3, 6] is on record?
**A.** The value was 1022 µg/mL.

**Q.** With GVSLPEW as the substance, how does the ACE inhibition pattern [3, 7] read?
**A.** Its ACE inhibition pattern is “non-competitive”.

**Q.** For GYGGVSLPEW, which ACE inhibition pattern [3, 7] is on record?
**A.** The ACE inhibition pattern was “non-competitive”.

**Q.** For H-FDRPFL-OH, which β-sheet content is on record?
**A.** Its β-sheet content is 38.3%.

**Q.** What about the α-helix content [4] of the same substance?
**A.** Its α-helix content is 22.4%.

**Q.** What about the β-turn content [5] of the same substance?
**A.** Its β-turn content is 39.3%.

**Q.** Which β-sheet content does the source give for H-KWEKPF-OH here?
**A.** Its β-sheet content is 38%.

**Q.** And the α-helix content [4]?
**A.** The α-helix content was 20.2%.

**Q.** And the β-turn content [5]?
**A.** The β-turn content was 41.7%.

**Q.** For KIGSRSRFDVT, which ACE inhibition pattern [3, 7] is on record?
**A.** The ACE inhibition pattern was “non-competitive”.

**Q.** For KVLPVPQK, which Potential bioactive [1] is on record?
**A.** Its Potential bioactive is “ACE inhibitor, Antioxidative”.

**Q.** For LGYSF, which “IC50 (ACE inhibitory activity)” value [3, 8] is on record?
**A.** The value was 510 µg/mL.

**Q.** With LKPTPEGDLE as the substance, how does the Potential bioactive [1] read?
**A.** The Potential bioactive was “Dipeptidyl peptidase IV inhibitor”.

**Q.** Which “IC50 (ACE inhibitory activity)” value [3, 8] does the source give for LLAGGW here?
**A.** The value was 490 µg/mL.

**Q.** For “LSGYGP [literature mixed-pattern ACEIP derived from tilapia]”, which ACE inhibition pattern [3, 9] is on record?
**A.** Its ACE inhibition pattern is “mixed”.

**Q.** With MAIPPKK as the substance, how does the Potential bioactive [1] read?
**A.** Its Potential bioactive is “ACE inhibitor”.

**Q.** Which Potential bioactive [1] does the source give for PFPGPIPN here?
**A.** Its Potential bioactive is “ACE inhibitor”.

**Q.** For PMGPR, which “IC50 (ACE inhibitory activity)” value [3, 6] is on record?
**A.** The value was 1470 µg/mL.

**Q.** With SKVLPVPQ as the substance, how does the Potential bioactive [1] read?
**A.** Its Potential bioactive is “ACE inhibitor”.

**Q.** For “SLPEW [literature mixed-pattern ACEIP derived from alpha-lactalbumin]”, which ACE inhibition pattern [3, 9] is on record?
**A.** The ACE inhibition pattern was “mixed”.

**Q.** With VGINYW as the substance, how does the ACE inhibition pattern [3, 7] read?
**A.** Its ACE inhibition pattern is “non-competitive”.

**Q.** With “VSLPEW [literature mixed-pattern ACEIP derived from alpha-lactalbumin]” as the substance, how does the ACE inhibition pattern [3, 9] read?
**A.** The ACE inhibition pattern was “mixed”.

**Q.** For VYPFPGPI, which Potential bioactive [1] is on record?
**A.** Its Potential bioactive is “Antihypertensive”.

**Q.** Which Potential bioactive [1] does the source give for VYPFPGPIP here?
**A.** The Potential bioactive was “Antihypertensive”.

**Q.** With YDFYPR [YDFYPR] as the substance, how does the IC50 [2] read?
**A.** The IC50 was over 1160 µM.

**Q.** Which Potential bioactive [1] does the source give for YPFPGPI here?
**A.** Its Potential bioactive is “ACE inhibitor, Antioxidative, Anticancer”.

**Q.** For YPFPGPIP, which Potential bioactive [1] is on record?
**A.** Its Potential bioactive is “ACE inhibitor, Antioxidative”.
